Source: patent publication US20150018417A1, “FATTY ACIDS AS ANTI-INFLAMMATORY AGENTS” (University of Pittsburgh - Of the Commonwealth System of …, priority 2012, published 2015)
Entries after “also recorded” stand apart in the source; their conditions may differ.

What was measured:
RAW264.7 cells [1] = assay: EFAD formation in activated RAW264.7 cells treated with inhibitors; format: cell-based, murine
PPARγ = target: T1, PPARγ (Homo sapiens, UniProt P37231); assay: PPARγ beta-lactamase reporter assay; format: cell-based; settings: concentrations 0.5-10,000 nM, read-out: EC50 PPARγ activation
T1 sequence (P37231 1-505): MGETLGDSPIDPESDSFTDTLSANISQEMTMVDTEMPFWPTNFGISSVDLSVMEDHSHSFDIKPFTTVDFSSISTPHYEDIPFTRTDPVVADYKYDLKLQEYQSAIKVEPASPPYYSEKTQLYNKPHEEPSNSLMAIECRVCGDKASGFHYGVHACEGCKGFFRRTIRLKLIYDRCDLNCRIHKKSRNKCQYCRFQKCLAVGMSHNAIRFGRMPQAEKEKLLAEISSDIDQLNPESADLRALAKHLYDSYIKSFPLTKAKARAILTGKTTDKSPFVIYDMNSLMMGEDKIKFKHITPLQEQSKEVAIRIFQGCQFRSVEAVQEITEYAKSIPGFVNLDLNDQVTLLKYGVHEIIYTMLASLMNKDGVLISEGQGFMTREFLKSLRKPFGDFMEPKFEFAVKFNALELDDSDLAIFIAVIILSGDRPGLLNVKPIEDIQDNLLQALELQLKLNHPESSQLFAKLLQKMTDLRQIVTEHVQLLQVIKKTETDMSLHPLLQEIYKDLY
Protocol: (§1) FIG. 11 illustrates modulation of anti-oxidant and inflammatory responses by 17-oxoDHA and 17-oxoDPA. RAW264.7 cells were treated with increasing concentration of 17-oxoDHA and 17-oxoDPA. (a) Cells were harvested 1 h after treatment and Nrf2 levels were quantified in nuclear extracts, (b) Cells were harvested 18 h after treatment and HO—I and Nqol (upper band) levels were measured by western blot, (c, d) RAW264.7 cells were treated with increasing concentration of 17-oxoDHA and 17-oxoDP A for 6 h and Kdo2+IFNγ were added. Samples were collected at 12 h. IL-6, MCP-I and IL-IO levels were measured in the cell media by Quantikine ELISA Kit (R&D Systems) and normalized by the total protein content (c); Nitrite levels were measured in the cell media and normalized by the total protein content and iNOS and Cox-2 levels were measured in total cell lysates (d); (e) PPARγ beta-lactamase reporter assays were performed for Rosiglitazone, 17-OxoDPA, 17-OxoDHA, 15d-PGJ2, 17-hydroxyDHA, DPA, and DHA with concentrations ranging from 0.5-10,000 nM.
The observation that oxo-fatty acids, such as 15d-PGJ230, 5-oxoEPA, 6-oxoOTE, and the synthetic 4-oxoDHA31, covalently bind and activate the peroxisome proliferator-activated receptor γ (PPARγ), prompted the present inventors to test the ability of 17-oxoDPA, and 17-oxoDHA to activate PPARγ. Thus PPARγ beta-lactamase reporter assays were performed using Roziglitazone, a potent synthetic PPARγ agonist, was used in the assay as positive control.

RAW264.7 cells [2] = assay: Nitrite levels in cell media of activated RAW264.7 cells (Griess reaction); format: cell-based, murine; settings: 6 h pretreatment, then Kdo2+IFNγ, 12 h
Protocol: as §1
For activation experiments RAW 264.7 cells were seeded, incubated overnight, and treated at approximately 80% confluence with the indicated compounds 47. […]
(§2) Total nitrite and nitrate concentration was measured in cell culture media by Griess reaction using the Nitrate/Nitrite Colorimetric Assay Kit (Cayman Chemical).

RAW264.7 cells [3] = assay: Cytokine levels (IL-6, MCP-I, IL-10) in activated RAW264.7 cells, ELISA; format: cell-based, murine
Protocol: as §1
To investigate whether the 17-oxo DHA and 17-oxo DPA played a role in modulating the inflammatory response generated by Kdo2 and IFNγ, the present investigators study the change in levels of cytokines, IL-6, MCP-I and IL-IO in cells exposed to increasing doses of 17-oxo DHA and 17-oxo DPA. […]

Nrf2 = Nrf2 nuclear accumulation and HO-1/Nqo1 expression, western blot; format: cell-based, murine; settings: RAW264.7; Nrf2 at 1 h, HO-1/Nqo1 at 18 h
Protocol: as §1
As described above, compounds of the invention can react with biological thiols to form reversible covalent adducts. […]
(§3) Protein concentrations of samples were measured by BCA assay (Pierce). […] Actin (detected by Sigma A2066) was used as loading control. […]

[4] = tested on: inducible nitric oxide synthase (iNOS); assay: iNOS induction and nitrite accumulation in activated RAW264.7 cells; format: cell-based, murine; settings: RAW264.7 activated with Kdo2 and IFNγ
Protocol: as §1
For activation experiments RAW 264.7 cells were seeded, incubated overnight, and treated at approximately 80% confluence with the indicated compounds 47. Non-activated controls were treated with vehicle alone. During activation, cells were maintained in an activation medium (SMEM) of Minimum Essential Medium Eagle (Cellgro, 17-305)+2% FBS supplemented with L-glutamine (584 mg/L), Na-pyruvate (110 mg/L) and Hepes (3.57 g/L, pH 7.4). For inhibition studies, inhibitors were added to the medium at the time of activation and MTT assays were used to confirm cell viability. Cells were harvested 20 h post activation (unless otherwise indicated) in 50 mM phosphate buffer (pH 7.4) and snap frozen in liquid N2. […]
as §3, §2

GAPDH = GAPDH (Oryctolagus cuniculus, UniProt P46406); assay: In vitro alkylation of GAPDH, mass spectrometric analysis; format: biochemical, rabbit
GAPDH, sequence (P46406 whole entry): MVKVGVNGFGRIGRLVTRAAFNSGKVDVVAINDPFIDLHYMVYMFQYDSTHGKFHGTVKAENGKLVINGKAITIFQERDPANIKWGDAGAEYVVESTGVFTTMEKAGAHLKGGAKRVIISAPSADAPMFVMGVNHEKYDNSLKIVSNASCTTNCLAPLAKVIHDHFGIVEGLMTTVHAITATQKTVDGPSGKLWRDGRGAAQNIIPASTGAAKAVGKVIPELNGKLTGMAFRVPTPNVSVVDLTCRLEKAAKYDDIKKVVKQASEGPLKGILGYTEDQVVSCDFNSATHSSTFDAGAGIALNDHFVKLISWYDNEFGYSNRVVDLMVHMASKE
Text: FIG. 21 illustrates the mass spectrometric analysis of an in vitro reaction of GAPDHvith EFAD-2. Four residues were detected and confirmed-as being targets for EfAD-2 in treated rabbit GAPDH. The peptides were alkylated as Cys244 (a), His163 (b), Cys149 (c) and His328 (d). Upper panels show EFAD-2 modified peptides and lower panels show spectra from corresponding native peptide.
To more specifically test the binding of EFADs to nucleophilic residues in proteins, we tested whether GAPDH was alkylated by EFADs. This enzyme is a well-characterized target for electrophiles and becomes easily inactivated by nitrosylation, oxidation or nucleophilic addition.

[5] = RAW264.7 activated with Kdo2 and IFNγ, inhibitor added at activation, 20 h

In the case of `CC(C)Cc1ccc(C(C)C(=O)O)cc1` (racemic) [ibuprofen], the “inhibition of EFAD production” value (RAW264.7 cells [1]; [5]) is reported as “more than 80%” and the “effect on EFAD-I formation” value (RAW264.7 cells [1]; ibuprofen 100 μM, exception stated in the text) is reported as “no significant effect”.

`CCCCCC=CC=C1C(=O)C=C[C@@H]1CC=CCCCC(=O)O` [15d-PGJ2, 15-deoxy-Δ (12,14)-prostaglandin J2, reference compound] gave an EC50 (PPARγ) of about 25 nM.

`CC/C=C\CC(O)/C=C/C=C\C/C=C\C/C=C\CCCCCC(=O)O` (stereo not shown) [17-OH-DPA, 17-OH(7Z,10Z,13Z,15A,19Z)-docosa-7,10,13,15,19-pentanoic acid, reference compound] gave an EC50 (PPARγ) of over 10000 nM.

In the case of `CC/C=C\CC(=O)C=C/C=C\C/C=C\C/C=C\C/C=C\CCC(=O)O` [17-oxoDHA, 17-oxo-(4Z,7Z,10Z,13Z,15A,19Z)-docosa-4,7,10,13,15,19-hexanoic acid], the EC50 (PPARγ) is reported as about 40 nM, the “reduction of nitrite production” value (RAW264.7 cells [2]; 20 μM) is reported as −70% and the “IFNγ and LPS-induced cytokine production” value (RAW264.7 cells [3]) is reported as “inhibited”. For the same molecule, the “Nrf2 nuclear accumulation and expression of HO-1 and Nqo1” value (Nrf2) was “promoted dose-dependent Nrf2 nuclear accumulation; also recorded: induced the anti-oxidant response”, the “iNOS induction and accumulation of nitrite in the cell media” value [4] was “dose-dependent inhibition” and the “adduct formation with GAPDH residues” value (GAPDH) was “covalently bind Cys and His residues”.

With `CC/C=C\CC(=O)C=C/C=C\C/C=C\C/C=C\CCCCCC(=O)O` [17-oxoDPA, 17-oxo-(7Z,10Z,13Z,15A,19Z)-docosa-7,10,13,15,19-pentanoic acid] the EC50 (PPARγ) was about 40 nM, the “reduction of nitrite production” value (RAW264.7 cells [2]; 25 μM) was −70% and the “IFNγ and LPS-induced cytokine production” value (RAW264.7 cells [3]) was “inhibited”. The “Nrf2 nuclear accumulation and expression of HO-1 and Nqo1” value (Nrf2) was “promoted dose-dependent Nrf2 nuclear accumulation; also recorded: induced the anti-oxidant response”, the “iNOS induction and accumulation of nitrite in the cell media” value [4] was “dose-dependent inhibition” and the “adduct formation with GAPDH residues” value (GAPDH) was “covalently bind Cys and His residues”.

In the case of `CCCCCC#CCC#CCC#CCC#CCCCC(=O)O` [ETYA, Eicosatetraynoic acid], the “effect on EFAD formation” value (RAW264.7 cells [1]; [5]) is reported as “strongly inhibit”.

`COc1ccc2c(c1)c(CC(=O)O)c(C)n2C(=O)c1ccc(Cl)cc1` [Indomethacin] was tested, and the “effect on EFAD formation” value (RAW264.7 cells [1]; [5]) was “completely abolish”.

In the case of `CC(C)c1ccc2c(c1)c(SC(C)(C)C)c(CC(C)(C)C(=O)O)n2Cc1ccc(Cl)cc1` [MK886], the “effect on EFAD formation” value (RAW264.7 cells [1]; [5]) is reported as “no significant effect”.

With `CS(=O)(=O)Nc1ccc([N+](=O)[O-])cc1OC1CCCCC1` [NS-398] the “effect on EFAD formation” value (RAW264.7 cells [1]; [5]) was “abolished”.

With `C=C1[C@@H](O)[C@@H]2O[C@]3(CC[C@H](/C=C/[C@@H](C)[C@@H]4CC(C)=C[C@@]5(O[C@H](C[C@@](C)(O)C(=O)O)CC[C@H]5O)O4)O3)CC[C@H]2O[C@@H]1[C@@H](O)C[C@H](C)[C@H]1O[C@@]2(CCCCO2)CC[C@H]1C` [OKA, okadaic acid] the “effect on EFAD formation” value (RAW264.7 cells [1]; [5]) was “slight increase”.

`O=C(O)Cc1ccccc1Nc1c(Cl)cccc1Cl` [diclofenac] was tested, and the “effect on EFAD formation” value (RAW264.7 cells [1]; [5]) was “completely abolish”.
